{
  "source": "patent EP4806435A1",
  "about": "“DIHYDROCHROMENE-DERIVATIVE-CONTAINING THERAPEUTIC AGENT FOR CANCER” (Sumitomo Pharma Co., Ltd., priority 2023, dated 2025)",
  "assay": "Phase 1 clinical trial: plasma pharmacokinetics",
  "format": "in vivo, human",
  "conditions": "for Tmax / half-life / Cmax / AUC / AUC(0-t): human, plasma, oral; for half-life: read-out: Effective T1/2 (converted)",
  "method": "Summary statistics based on preliminary data were obtained for the pharmacokinetics of Compound 1 in patients receiving once-daily doses ranging from 20 mg to 240 mg (Table 5). The mean plasma concentration-time curves of Compound 1 in the once-daily dose groups ranging from 20 mg to 240 mg are shown in Figure 11. In this study, one cycle consists of 28 days, and Cycle 1 Day 1 refers to Day 1 of the first cycle. […] Accumulation was observed after repeated administration. […] Based on these accumulation ratios, the half-life of Compound 1 was estimated to be approximately 4 days. Based on the currently available data, plasma concentrations are considered to have reached steady state by Day 15.\nSummary statistics based on preliminary data were obtained for the pharmacokinetics of Compound 1 in patients in the 20 mg QD, 40 mg QD, 80 mg QD, 120 mg QD, 180 mg QD, 240 mg QD, 360 mg QD, and 480 mg daily (240 mg BID) dose groups (Table 6). The mean plasma concentration-time curves of Compound 1 in the 20 mg QD to 480 mg daily (240 mg BID) dose groups are shown in Figure 12 (in Figure 12, Compound 1 is denoted as \"DSP-0390\"). In this study, one cycle consists of 28 days, and Cycle 1 Day 1 refers to Day 1 of the first cycle. […] The median Tmax ranged from 2 to 8 hours. Accumulation was observed after repeated administration, and assuming linearity based on the observed accumulation ratios, the estimated elimination half-life was considered to be on the order of several days (approximately 1 to 6 days) (data cut-off: March 2024).",
  "key": {"[1]": {"conditions": "repeated administration, 20 mg to 240 mg once daily, cut-off April 2023"}},
  "note": "Read-outs that look alike come from different tables or passages of the source.",
  "data": [
    {"smiles": "CC1(C)Oc2cc(Cl)ccc2[C@@H]2OCC3(CCN(CCn4ccnc4)CC3)C[C@H]21", "note": "[Compound 1, (4'aR,10'bR)-8'-chloro-1-[2-(1H-imidazol-1-yl)ethyl]-5',5'-dimethyl-4'a,10'b-dihydro-2'H,4'H,5'H-spiro[piperidine-4,3'-pyrano[3,2-c][1]benzopyran] diphosphate]", "values": [
      {"measurement": "Tmax", "setting": "180 mg, Cycle 2 Day 1, 180 mg, QD, cut-off April 2023, read-out: Tmax (median)", "value": 7, "unit": "h"},
      {"measurement": "half-life", "setting": "240 mg, 240 mg QD, cut-off March 2024", "value": 45.6, "unit": "h"},
      {"measurement": "half-life", "setting": "240 mg, 480 mg (240 mg BID), cut-off March 2024", "value": 16.8, "unit": "h"},
      {"measurement": "Cmax", "setting": "240 mg, Cycle 1, Day 1, 240 mg QD, cut-off March 2024, read-out: Cmax", "value": 177, "unit": "ng/mL"},
      {"measurement": "Tmax", "setting": "240 mg, Cycle 1, Day 1, 240 mg QD, cut-off March 2024, read-out: Tmax [a] median value", "value": 2, "unit": "h"},
      {"measurement": "AUC", "setting": "240 mg, Cycle 1, Day 1, 240 mg QD, tau = 24 hours, cut-off March 2024, read-out: AUCtau [b]", "value": 1620, "unit": "ng·h/mL"},
      {"measurement": "Cmax", "setting": "240 mg, Cycle 1, Day 1, 480 mg (240 mg BID), cut-off March 2024, read-out: Cmax", "value": 143, "unit": "ng/mL"},
      {"measurement": "Tmax", "setting": "240 mg, Cycle 1, Day 1, 480 mg (240 mg BID), cut-off March 2024, read-out: Tmax [a] median value", "value": 4, "unit": "h"},
      {"measurement": "AUC", "setting": "240 mg, Cycle 1, Day 1, 480 mg (240 mg BID), n=1, tau = 12 hours, cut-off March 2024, read-out: AUCtau [b]", "value": 1980, "unit": "ng·h/mL"},
      {"measurement": "AUC(0-t)", "setting": "240 mg, Cycle 1 Day 1, 240 mg, QD, cut-off April 2023, read-out: AUC0-24 (geometric mean)", "value": 1480, "unit": "ng·h/mL"},
      {"measurement": "AUC(0-t)", "setting": "240 mg, Cycle 1 Day 1, 240 mg, QD, cut-off April 2023, read-out: AUC0-24 (mean)", "value": 1510, "unit": "ng·h/mL"},
      {"measurement": "AUC(0-t)", "setting": "240 mg, Cycle 1 Day 1, 240 mg, QD, cut-off April 2023, read-out: AUC0-24 (median)", "value": 1620, "unit": "ng·h/mL"},
      {"measurement": "Cmax", "setting": "240 mg, Cycle 1 Day 1, 240 mg, QD, cut-off April 2023, read-out: Cmax (geometric mean)", "value": 145, "unit": "ng/mL"},
      {"measurement": "Cmax", "setting": "240 mg, Cycle 1 Day 1, 240 mg, QD, cut-off April 2023, read-out: Cmax (mean)", "value": 153, "unit": "ng/mL"},
      {"measurement": "Cmax", "setting": "240 mg, Cycle 1 Day 1, 240 mg, QD, cut-off April 2023, read-out: Cmax (median)", "value": 148, "unit": "ng/mL"},
      {"measurement": "Tmax", "setting": "240 mg, Cycle 1 Day 1, 240 mg, QD, cut-off April 2023, read-out: Tmax (mean)", "value": 3, "unit": "h"},
      {"measurement": "Tmax", "setting": "240 mg, Cycle 1 Day 1, 240 mg, QD, cut-off April 2023, read-out: Tmax (median)", "value": 2, "unit": "h"},
      {"measurement": "Cmax", "setting": "240 mg, Cycle 2, Day 1, 240 mg QD, cut-off March 2024, read-out: Cmax,ss", "value": 316, "unit": "ng/mL"},
      {"measurement": "Tmax", "setting": "240 mg, Cycle 2, Day 1, 240 mg QD, cut-off March 2024, read-out: Tmax,ss [a] median value", "value": 5, "unit": "h"},
      {"measurement": "AUC", "setting": "240 mg, Cycle 2, Day 1, 240 mg QD, tau = 24 hours, cut-off March 2024, read-out: AUCtau,ss [b]", "value": 5330, "unit": "ng·h/mL"},
      {"measurement": "Cmax", "setting": "240 mg, Cycle 2, Day 1, 480 mg (240 mg BID), cut-off March 2024, read-out: Cmax,ss", "value": 346, "unit": "ng/mL"},
      {"measurement": "Tmax", "setting": "240 mg, Cycle 2, Day 1, 480 mg (240 mg BID), cut-off March 2024, read-out: Tmax,ss [a] median value", "value": 7, "unit": "h"},
      {"measurement": "AUC", "setting": "240 mg, Cycle 2, Day 1, 480 mg (240 mg BID), n=1, tau = 12 hours, cut-off March 2024, read-out: AUCtau,ss [b]", "value": 3180, "unit": "ng·h/mL"},
      {"measurement": "AUC(0-t)", "setting": "240 mg, Cycle 2 Day 1, 240 mg, QD, N=1, cut-off April 2023, read-out: AUC0-24 (geometric mean)", "value": 6670, "unit": "ng·h/mL"},
      {"measurement": "AUC(0-t)", "setting": "240 mg, Cycle 2 Day 1, 240 mg, QD, N=1, cut-off April 2023, read-out: AUC0-24 (mean)", "value": 6670, "unit": "ng·h/mL"},
      {"measurement": "AUC(0-t)", "setting": "240 mg, Cycle 2 Day 1, 240 mg, QD, N=1, cut-off April 2023, read-out: AUC0-24 (median)", "value": 6670, "unit": "ng·h/mL"},
      {"measurement": "Cmax", "setting": "240 mg, Cycle 2 Day 1, 240 mg, QD, cut-off April 2023, read-out: Cmax (geometric mean)", "value": 359, "unit": "ng/mL"},
      {"measurement": "Cmax", "setting": "240 mg, Cycle 2 Day 1, 240 mg, QD, cut-off April 2023, read-out: Cmax (mean)", "value": 360, "unit": "ng/mL"},
      {"measurement": "Cmax", "setting": "240 mg, Cycle 2 Day 1, 240 mg, QD, cut-off April 2023, read-out: Cmax (median)", "value": 360, "unit": "ng/mL"},
      {"measurement": "Tmax", "setting": "240 mg, Cycle 2 Day 1, 240 mg, QD, cut-off April 2023, read-out: Tmax (mean)", "value": 7, "unit": "h"},
      {"measurement": "Tmax", "setting": "240 mg, Cycle 2 Day 1, 240 mg, QD, cut-off April 2023, read-out: Tmax (median)", "value": 7, "unit": "h"},
      {"measurement": "half-life", "setting": "360 mg, 360 mg QD, cut-off March 2024", "value": 24, "unit": "h"},
      {"measurement": "Cmax", "setting": "360 mg, Cycle 1, Day 1, 360 mg QD, cut-off March 2024, read-out: Cmax", "value": 359, "unit": "ng/mL"},
      {"measurement": "Tmax", "setting": "360 mg, Cycle 1, Day 1, 360 mg QD, cut-off March 2024, read-out: Tmax [a] median value", "value": 4, "unit": "h"},
      {"measurement": "AUC", "setting": "360 mg, Cycle 1, Day 1, 360 mg QD, tau = 24 hours, cut-off March 2024, read-out: AUCtau [b]", "value": 4110, "unit": "ng·h/mL"},
      {"measurement": "Cmax", "setting": "360 mg, Cycle 2, Day 1, 360 mg QD, cut-off March 2024, read-out: Cmax,ss", "value": 489, "unit": "ng/mL"},
      {"measurement": "Tmax", "setting": "360 mg, Cycle 2, Day 1, 360 mg QD, cut-off March 2024, read-out: Tmax,ss [a] median value", "value": 4, "unit": "h"},
      {"measurement": "AUC", "setting": "360 mg, Cycle 2, Day 1, 360 mg QD, tau = 24 hours, cut-off March 2024, read-out: AUCtau,ss [b]", "value": 8490, "unit": "ng·h/mL"},
      {"measurement": "AUC(0-t)", "setting": "Cycle 1 Day 1, 20 mg to 240 mg once daily, cut-off April 2023, read-out: geometric mean of AUC0-24, range over all dose groups", "value": "76 to 1480", "unit": "ng·h/mL"},
      {"measurement": "Cmax", "setting": "Cycle 1 Day 1, 20 mg to 240 mg once daily, cut-off April 2023, read-out: geometric mean of Cmax, range over all dose groups", "value": "4 to 145", "unit": "ng/mL"},
      {"measurement": "Tmax", "setting": "Cycle 1 Day 1, 20 mg to 240 mg once daily, cut-off April 2023, read-out: median Tmax, range over all dose groups", "value": "2 to 8", "unit": "h"},
      {"measurement": "AUC(0-t)", "setting": "Cycle 2 Day 1, 20 mg to 240 mg once daily, cut-off April 2023, read-out: geometric mean of AUC0-24, range over all dose groups", "value": "556 to 6670", "unit": "ng·h/mL"},
      {"measurement": "Cmax", "setting": "Cycle 2 Day 1, 20 mg to 240 mg once daily, cut-off April 2023, read-out: geometric mean of Cmax, range over all dose groups", "value": "27.7 to 359", "unit": "ng/mL"},
      {"measurement": "Tmax", "setting": "Cycle 2 Day 1, 20 mg to 240 mg once daily, cut-off April 2023, read-out: median Tmax, range over all dose groups", "value": "2 to 7", "unit": "h"},
      {"measurement": "plasma concentrations reached steady state", "setting": "once-daily dosing, cut-off April 2023", "value": "≤ 15", "unit": "days"},
      {"measurement": "dose dependence of exposure", "setting": "range of 20 mg to 360 mg QD", "value": "increased in a dose-dependent manner"},
      {"measurement": "mean accumulation ratio for AUC0-24, range over dose groups", "setting": "[1]", "value": "3.9-8.6"},
      {"measurement": "mean accumulation ratio for Cmax, range over dose groups", "setting": "[1]", "value": "2.6-6.2"}
    ]}
  ]
}
